Assay results published in patent US11224601B1, “Compounds that inhibits MCL-1 protein” (priority 2017, dated 2022).

Biological target: recombinant human Mcl-1 (Mcl-1/Bim interaction) (Homo sapiens (Human), UniProt Q07820)
Assay: biochemical
Format: binding
Settings: cell free Mcl-1:Bim TR-FRET; read-out: Mcl-1 HTRF IC50

recombinant human Mcl-1 (Mcl-1/Bim interaction), sequence (Q07820 171-327): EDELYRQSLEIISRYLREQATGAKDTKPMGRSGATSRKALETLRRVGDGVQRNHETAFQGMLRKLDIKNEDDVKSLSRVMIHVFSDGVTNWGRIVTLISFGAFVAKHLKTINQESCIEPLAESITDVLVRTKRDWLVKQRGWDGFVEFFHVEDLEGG

How did the IC50 turn out when CO[C@@]1(CN2CCN3CCN(C(C)=O)C[C@@H]3C2)/C=C/C[C@H](C)[C@@H](C)S(=O)(=O)NC(=O)c2ccc3c(c2)N(C[C@@H]2CC[C@H]21)C[C@@]1(CCCc2cc(Cl)ccc21)CO3 (single isomer, unassigned) [Example 225] was run?
The IC50 was 87 pM.

CO[C@@]1(CN2CCN3CCN(C(C)=O)C[C@@H]3C2)/C=C/C[C@H](C)[C@@H](C)S(=O)(=O)NC(=O)c2ccc3c(c2)N(C[C@@H]2CC[C@H]21)C[C@@]1(CCCc2cc(Cl)ccc21)CO3 (single isomer, unassigned) [Example 226] was tested. Which IC50 did it give?
The IC50 was 57 pM.

CO[C@]1(CN2CCN3CCN(C(C)=O)C[C@@H]3C2)/C=C/C[C@H](C)[C@@H](C)S(=O)(=O)NC(=O)c2ccc3c(c2)N(C[C@@H]2CC[C@H]21)C[C@@]1(CCCc2cc(Cl)ccc21)CO3 (single isomer, unassigned) [Example 229] was tested. Which IC50 did it give?
Its IC50 is 619 pM.

With CO[C@]1(CN2CCN3CCN(C(C)=O)C[C@@H]3C2)/C=C/C[C@H](C)[C@@H](C)S(=O)(=O)NC(=O)c2ccc3c(c2)N(C[C@@H]2CC[C@H]21)C[C@@]1(CCCc2cc(Cl)ccc21)CO3 (single isomer, unassigned) [Example 230] as the compound, how does the IC50 read?
The IC50 was 51 pM.

How did the IC50 turn out when C[C@@H]1[C@@H](C)C/C=C/C(O)(CN2CCN3CCCC[C@@H]3C2)[C@@H]2CC[C@H]2CN2C[C@@]3(CCCc4cc(Cl)ccc43)COc3ccc(cc32)C(=O)NS1(=O)=O (single isomer, unassigned) [Example 242] was run?
The IC50 was 249 pM.

Which IC50 does the source give for C[C@@H]1[C@@H](C)C/C=C/C(O)(CN2CCN3CCCC[C@@H]3C2)[C@@H]2CC[C@H]2CN2C[C@@]3(CCCc4cc(Cl)ccc43)COc3ccc(cc32)C(=O)NS1(=O)=O (single isomer, unassigned) [Example 243] here?
The IC50 was 78 pM.

Which IC50 does the source give for CO[C@@]1(CN2CCN3CCN(C(C)=O)C[C@@H]3C2)/C=C/C[C@H](C)[C@@H](C)S(=O)(=O)NC(=O)c2ccc3c(c2)N(C[C@@H]2CC[C@H]21)C[C@@]1(CCCc2cc(Cl)ccc21)CO3 (stereo in doubt) [Example 214] here?
The IC50 was 71 pM.

CO[C@]1(CN2CCN3CCS(=O)(=O)C[C@@H]3C2)/C=C/C[C@H](C)[C@@H](C)S(=O)(=O)NC(=O)c2ccc3c(c2)N(C[C@@H]2CC[C@H]21)C[C@@]1(CCCc2cc(Cl)ccc21)CO3 (stereo in doubt) [Example 215] was tested. Which IC50 did it give?
Its IC50 is 149 pM.

CO[C@]1(CN2CCN3CCS(=O)(=O)C[C@@H]3C2)/C=C/C[C@H](C)[C@@H](C)S(=O)(=O)NC(=O)c2ccc3c(c2)N(C[C@@H]2CC[C@H]21)C[C@@]1(CCCc2cc(Cl)ccc21)CO3 (stereo in doubt) [Example 219] was tested. Which IC50 did it give?
Its IC50 is 73 pM.

How did the IC50 turn out when CO[C@@]1(CN2CCN3CCN(S(C)(=O)=O)C[C@@H]3C2)/C=C/C[C@H](C)[C@@H](C)S(=O)(=O)NC(=O)c2ccc3c(c2)N(C[C@@H]2CC[C@H]21)C[C@@]1(CCCc2cc(Cl)ccc21)CO3 (stereo in doubt) [Example 228] was run?
The IC50 was 200 pM.

With CCO[C@]1(CN2CCN(C(C)(C)C)CC2)/C=C/C[C@H](C)[C@@H](C)S(=O)(=O)NC(=O)c2ccc3c(c2)N(C[C@@H]2CC[C@H]21)C[C@@]1(CCCc2cc(Cl)ccc21)CO3 [Example 6, (1S,3′R,6′R,7′R,8′E,11′S,12′R)-7′-((4-tert-butyl-1-piperazinyl)methyl)-6-chloro-7′-ethoxy-11′,12′-dimethyl-3,4-dihydro-2H,15′H-spiro[naphthalene-1,22′-[20]oxa[13]thia[1,14]diazatetracyclo[14.7.2.0˜3,6˜.0˜19,24˜]pentacosa[8,16,18,24]tetraen]-15′-one 13′,13′-dioxide] as the compound, how does the IC50 read?
Its IC50 is 79 pM.

COCC[C@@H]1[C@@H](C)C/C=C/[C@@](CN2CCN(C(C)C)[C@H](C)C2)(OC)[C@@H]2CC[C@H]2CN2C[C@@]3(CCCc4cc(Cl)ccc43)COc3ccc(cc32)C(=O)NS1(=O)=O [Example 12, (1S,3′R,6′R,7′R,8′E,11′S,12′R)-6-chloro-7′-methoxy-12′-(2-methoxyethyl)-11′-methyl-7′-(((3R)-3-methyl-4-(1-methylethyl)-1-piperazinyl)methyl)-3,4-dihydro-2H,15′H-spiro[naphthalene-1,22′-[20]oxa[13]thia[1,14]diazatetracyclo[14.7.2.0˜3,6˜.0˜19,24˜]pentacosa[8,16,18,24]tetraen]-15′-one 13′,13′-dioxide] was tested. Which IC50 did it give?
The IC50 was 72 pM.

How did the IC50 turn out when CCO[C@]1(CN2CCN3CCCC[C@@H]3C2)/C=C/C[C@H](C)[C@@H](CCOC)S(=O)(=O)NC(=O)c2ccc3c(c2)N(C[C@@H]2CC[C@H]21)C[C@@]1(CCCc2cc(Cl)ccc21)CO3 [Example 15, (1S,3′R,6′R,7′R,8′E,11′S,12′R)-6-chloro-7′-ethoxy-12′-(2-methoxyethyl)-11′-methyl-7′-((9aR)-octahydro-2H-pyrido[1,2-a]pyrazin-2-ylmethyl)-3,4-dihydro-2H,15′H-spiro[naphthalene-1,22′-[20]oxa[13]thia[1,14]diazatetracyclo[14.7.2.0˜3,6˜.0˜19,24˜]pentacosa[8,16,18,24]tetraen]-15′-one 13′,13′-dioxide] was run?
The IC50 was 119 pM.

For CCO[C@]1(CN2CCN(C(C)C)CC2)/C=C/C[C@H](C)[C@@H](CCOC)S(=O)(=O)NC(=O)c2ccc3c(c2)N(C[C@@H]2CC[C@H]21)C[C@@]1(CCCc2cc(Cl)ccc21)CO3 [Example 16, (1S,3′R,6′R,7′R,8′E,11′S,12′R)-6-chloro-7′-ethoxy-12′-(2-methoxyethyl)-11′-methyl-7′-((4-(1-methylethyl)-1-piperazinyl)methyl)-3,4-dihydro-2H,15′H-spiro[naphthalene-1,22′-[20]oxa[13]thia[1,14]diazatetracyclo[14.7.2.0˜3,6˜.0˜19,24˜]pentacosa[8,16,18,24]tetraen]-15′-one 13′,13′-dioxide], which IC50 is on record?
Its IC50 is 65 pM.

How did the IC50 turn out when CO[C@@]1(CN2CCN(C3COC3)CC2)/C=C/C[C@H](C)[C@@H](C)S(=O)(=O)NC(=O)c2ccc3c(n2)N(C[C@@H]2CC[C@H]21)C[C@@]1(CCCc2cc(Cl)ccc21)CO3 [Example 19, (1S,3′R,6′R,7′S,8′E,11′S,12′R)-6-chloro-7′-methoxy-11′,12′-dimethyl-7′-((4-(3-oxetanyl)-1-piperazinyl)methyl)-3,4-dihydro-2H,15′H-spiro[naphthalene-1,22′-[20]oxa[13]thia[1,14,25]triazatetracyclo[14.7.2.0˜3,6˜.0˜19,24˜]pentacosa[8,16,18,24]tetraen]-15′-one 13′,13′-dioxide] was run?
Its IC50 is 125 pM.

For CC[C@@H]1CC/C=C/[C@@](CN2CCN3CCCC[C@@H]3C2)(OC)[C@@H]2CC[C@H]2CN2C[C@@]3(CCCc4cc(Cl)ccc43)COc3ccc(cc32)C(=O)N(C)S1(=O)=O [Example 33, (1S,3′R,6′R,7′R,8′E,12′R)-6-chloro-12′-ethyl-7′-methoxy-14′-methyl-7′-((9aR)-octahydro-2H-pyrido[1,2-a]pyrazin-2-ylmethyl)-3,4-dihydro-2H,15′H-spiro[naphthalene-1,22′-[20]oxa[13]thia[1,14]diazatetracyclo[14.7.2.0˜3,6˜.0˜19,24˜]pentacosa[8,16,18,24]tetraen]-15′-one 13′,13′-dioxide], which IC50 is on record?
The IC50 was 8250 pM.

With C[C@@H]1[C@@H](C)C/C=C/[C@@](O)(CN2CCOC[C@@H]2Cn2ccnc2)[C@@H]2CC[C@H]2CN2C[C@@]3(CCCc4cc(Cl)ccc43)COc3ccc(cc32)C(=O)NS1(=O)=O [Example 100, (1S,3′R,6′R,7′S,8′E,11′S,12′R)-6-chloro-7′-hydroxy-7′-(((3S)-3-(1H-imidazol-1-ylmethyl)-4-morpholinyl)methyl)-11′,12′-dimethyl-3,4-dihydro-2H,15′H-spiro[naphthalene-1,22′-[20]oxa[13]thia[1,14]diazatetracyclo[14.7.2.0˜3,6˜.0˜19,24˜]pentacosa[8,16,18,24]tetraen]-15′-one 13′,13′-dioxide] as the compound, how does the IC50 read?
The IC50 was 188 pM.

C[C@@H]1[C@@H](C)C/C=C/[C@@](O)(CNC(C)(C)C)[C@@H]2CC[C@H]2CN2C[C@@]3(CCCc4cc(Cl)ccc43)COc3ccc(cc32)C(=O)NS1(=O)=O [Example 125, (1S,3′R,6′R,7′S,8′E,11′S,12′R)-7′-((tert-butylamino)methyl)-6-chloro-7′-hydroxy-11′,12′-dimethyl-3,4-dihydro-2H,15′H-spiro[naphthalene-1,22′-[20]oxa[13]thia[1,14]diazatetracyclo[14.7.2.0˜3,6˜.0˜19,24˜]pentacosa[8,16,18,24]tetraen]-15′-one 13′,13′-dioxide] was tested. Which IC50 did it give?
The IC50 was 6100 pM.

With CC(C)N(CCO)C[C@]1(O)/C=C/C[C@H](C)[C@@H](C)S(=O)(=O)NC(=O)c2ccc3c(c2)N(C[C@@H]2CC[C@H]21)C[C@@]1(CCCc2cc(Cl)ccc21)CO3 [Example 126, (1S,3′R,6′R,7′S,8′E,11′S,12′R)-6-chloro-7′-hydroxy-7′-(((2-hydroxyethyl)(1-methylethyl)amino)methyl)-11′,12′-dimethyl-3,4-dihydro-2H,15′H-spiro[naphthalene-1,22′-[20]oxa[13]thia[1,14]diazatetracyclo[14.7.2.0˜3,6˜.0˜19,24˜]pentacosa[8,16,18,24]tetraen]-15′-one 13′,13′-dioxide] as the compound, how does the IC50 read?
Its IC50 is 627 pM.

C[C@@H]1[C@@H](C)C/C=C/[C@]2(CN(Cc3ccccc3)CCO2)[C@@H]2CC[C@H]2CN2C[C@@]3(CCCc4cc(Cl)ccc43)COc3ccc(cc32)C(=O)NS1(=O)=O [Example 138, (1S,3′R,6′R,7′R,8′E,11′S,12′R)-4″-benzyl-6-chloro-11′,12′-dimethyl-3,4-dihydro-2H,15′H-dispiro[naphthalene-1,22′-[20]oxa[13]thia[1,14]diazatetracyclo[14.7.2.0˜3,6˜.0˜19,24˜]pentacosa[8,16,18,24]tetraene-7′,2″-[1,4]oxazinan]-15′-one 13′,13′-dioxide] was tested. Which IC50 did it give?
The IC50 was 26700 pM.

CO[C@@]1(CN2CCN(CC(=O)O)CC2)/C=C/C[C@H](C)[C@@H](C)S(=O)(=O)NC(=O)c2ccc3c(c2)N(C[C@@H]2CC[C@H]21)C[C@@]1(CCCc2cc(Cl)ccc21)CO3 [Example 270, (4-(((1S,3′R,6′R,7′S,8′E,11′S,12′R)-6-chloro-7′-methoxy-11′,12′-dimethyl-13′,13′-dioxido-15′-oxo-3,4-dihydro-2H-spiro[naphthalene-1,22′-[20]oxa[13]thia[1,14]diazatetracyclo[14.7.2.0˜3,6˜.0˜19,24˜]pentacosa[8,16,18,24]tetraen]-7′-yl)methyl)-1-piperazinyl)acetic acid] was tested. Which IC50 did it give?
Its IC50 is 35 pM.
